Our source for the viability values is paper PMC12040169 (PLOS Biology, 2025).

The structures appear in SMILES notation.

A short description of this series: in vitro. The settings on record: human, hela cells, % viability.
The term viability denotes a read-out of living cells in per cent, often relative to untreated cells. As to `CC(C)c1nnc(C2(c3ccc(Br)cc3)CCOCC2)o1` [CBK306230], the viability at 28.5 h, 10 µM worked out at 86.4%.

Regarding `Cc1cc(NC(=O)C(C)SCc2cccc(C(F)(F)F)c2)no1` (centres unmarked) [CBK306233], the viability at 28.5 h, 10 µM was found to be 95.5%. Next, `C#CCN(C1CCc2ccccc21)S(=O)(=O)c1cc(C(=O)NC)n(C)c1` (centres unmarked) [CBK306235]: 91.8%. With `Cn1cc(Nc2nc(-c3ccc4c(c3)CCCN4S(C)(=O)=O)cs2)cn1` [CBK306236], the viability at 28.5 h, 10 µM turned out to be 85.7%. Next, `CCCn1cc(NC(=O)C2(c3ccccc3)CCC2)ccc1=O` [CBK306237]: 95.4%; `Cc1cc(C)n(C2CN(CC(=O)NCc3ccccn3)C2)n1` [CBK306238]: 88.3%.

As for `CCC1CCCCN1C(=O)Cc1c(C)nc(-c2cccnc2)[nH]c1=O` (centres unmarked) [CBK306240], the viability at 28.5 h, 10 µM was found to be 91.6%. On to `O=C(Cn1ccc(=O)[nH]c1=O)NCC1(Sc2ccccc2)CC1` [CBK306242], for which the viability at 28.5 h, 10 µM worked out at 110%. As for `COCC1CCN(c2c(F)cc(C#N)cc2F)CC1` [CBK306244], the viability at 28.5 h, 10 µM came out at 104%. The figure for `Cc1ccccc1-c1cc(C(=O)N(C)C)c2cnn(C(C)C)c2n1` [CBK306245] is 98.6%.

With `Cc1nnnn1-c1cc(NC(=O)NCCN2CCOCC2)ccc1F` [CBK306246], the viability at 28.5 h, 10 µM was found to be 89.2%. With `CC(=O)Nc1cccc(C(C)NC(=O)N(C)C2CCc3ccccc32)c1` (centres unmarked) [CBK306251], the viability at 28.5 h, 10 µM turned out to be 102%. Next, `Cc1cccn2cc(CC(=O)NC3(C#N)CCCCC3)nc12` [CBK306252]: 95.2%; `CCc1nc(CN2CCCC(NCc3cccc(C(N)=O)c3)C2)no1` (centres unmarked) [CBK306254]: 87.2%; `CC(C)Cc1nc(Cn2cnc3c(cnn3C)c2=O)no1` [CBK306256]: 90.7%. Take `CNS(=O)(=O)c1cccc(C(C)NC(=O)N2CCC2)c1` (centres unmarked) [CBK306257]: the viability at 28.5 h, 10 µM worked out at 87.1%. As to `Cc1cc(S(=O)(=O)Nc2ccccc2-c2nnnn2C(C)C)c(C)o1` [CBK306259], the viability at 28.5 h, 10 µM worked out at 111%.

Consider `CCCCNc1cc(N2CCN(c3cnn(C)c3)C(=O)C2)nc(N)n1` [CBK306260], for which the viability at 28.5 h, 10 µM came out at 87.8%. The figure for `CCc1cnc(CNC(=O)NCc2nc3cc(C)ccc3n2C)s1` [CBK306261] is 98.9%. As for `CS(=O)(=O)c1ccc(-n2nnnc2CN2CCC3(CCC3)C2)cc1` [CBK306262], the viability at 28.5 h, 10 µM amounted to 79.6%. The figure for `Cc1c(NC(=O)C2CCN(c3ccccc3Cl)C2)nnn1C` (centres unmarked) [CBK306263] is 90.7%; for `Cn1cnc2cc(-c3nnn[nH]3)ccc21` [CBK306265] it is 90.2%; for `Cn1c(=O)n(C)c2cc(S(=O)(=O)NCC3(N)CCOCC3)ccc21` [CBK306266] it is 113%. The figure for `Cc1ccc2[nH]c3c(c2c1)CC(NS(=O)(=O)c1c(N)noc1C)CC3` (centres unmarked) [CBK306270] is 86.6%; for `Cc1occc1C(=O)Nc1nc(CC(=O)N2CC(C)SC(C)C2)cs1` (centres unmarked) [CBK306271] it is 87.8%; for `CC(C)Cn1cnc(S(=O)(=O)N2CCC(Cc3ccccc3)CC2)c1` [CBK306273] it is 92.3%. Regarding `Cc1nc(C)n(CC2CCCN(S(=O)(=O)c3cnc4ccsc4c3)C2)n1` (centres unmarked) [CBK306274], the viability at 28.5 h, 10 µM amounted to 84.3%. Consider `COc1cc(C)nc(NCc2cnn(C)c2C)n1` [CBK306277], for which the viability at 28.5 h, 10 µM was 85.4%. Take `COCC1CN(C(=O)Nc2nnc(Cc3ccc(C)cc3)s2)CCO1` (centres unmarked) [CBK306278]: the viability at 28.5 h, 10 µM was 83.3%. For `Cn1nccc1NC(=O)Nc1ccc(CN2CCOC2=O)cc1` [CBK306279], the viability at 28.5 h, 10 µM was determined as 88%. `COCCn1c(SCc2cn3ccccc3c2C#N)nc(C)c1C` [CBK306282]: the viability at 28.5 h, 10 µM was 92.4%. The figure for `Cc1noc(C)c1CN(C)C(=O)NC1CCCc2c1cnn2CCO` (centres unmarked) [CBK306283] is 92.5%; for `CCc1nc(CN2CCN(c3ccc4nc(C)nn4n3)CC2)cs1` [CBK306285] it is 89.1%. On to `CCOc1cc(NC2CCN(C(=O)OC(C)(C)C)CC2)ncn1` [CBK306288], for which the viability at 28.5 h, 10 µM came to 89.6%. `CN(Cc1ccco1)C(=O)NC1CCCc2c1cnn2CCO` (centres unmarked) [CBK306290]: the viability at 28.5 h, 10 µM was determined as 108%. As for `CC(c1ccc(F)c(F)c1)N(C)C(=O)Cn1cnc2c(c1=O)CCC2` (centres unmarked) [CBK306291], the viability at 28.5 h, 10 µM was found to be 88.6%. `Cn1ncc2c1CCCC2NC(=O)N(CCO)Cc1ccccc1` (centres unmarked) [CBK306293]: the viability at 28.5 h, 10 µM came out at 86.1%.

In the case of `Cc1ncc(CN(C)C(=O)c2cccc(NC(=O)C3CCCCC3)c2)s1` [CBK306295], the viability at 28.5 h, 10 µM stood at 83%. The figure for `CCN1CCCN(c2ccc(-n3ccc(C)n3)nn2)CC1` [CBK306297] is 108%. The figure for `CCn1c(CN2CCn3c(nnc3C3CC3)C2)nc2c(F)cccc21` [CBK306300] is 96.6%. The figure for `Cc1ccn(-c2ccc(N3CCC4(CCOC4)C3)nn2)n1` (centres unmarked) [CBK306302] is 87.8%. For `Cn1ncnc1COc1ccc(S(=O)(=O)NC2CCCC2)cc1` [CBK306305], the viability at 28.5 h, 10 µM came to 107%. The figure for `CNC(=O)C1CCCCN1C(=O)c1cn(CCOC)c2ccccc12` (centres unmarked) [CBK306308] is 94.8%. For the compound `Cn1cc(CNCCCN2CCc3ccccc32)c(-c2cccnc2)n1` [CBK306316], the viability at 28.5 h, 10 µM worked out at 93.3%.

As for `CC(=O)N(C)Cc1cccc(Nc2ncnc3c2cnn3C)c1` [CBK306319], the viability at 28.5 h, 10 µM worked out at 95.3%.

In the case of `O=C(Nc1cc(N2CCCS2(=O)=O)ccc1F)c1cccnc1O` [CBK306320], the viability at 28.5 h, 10 µM worked out at 97.4%. Consider `Cc1nc2ccccc2n1CC(=O)N(CCC#N)Cc1ccco1` [CBK306323], for which the viability at 28.5 h, 10 µM is 86.1%. Next, `O=C(NCCc1cccs1)NC1CCCc2c1cnn2CCO` (centres unmarked) [CBK306324]: 92.6%; `CCCCN(C)S(=O)(=O)NCc1cn2ccccc2n1` [CBK306329]: 97.9%. With `CC(C#N)(NC(=O)COc1ncnc2sc3c(c12)CCC3)C1CC1` (centres unmarked) [CBK306333], the viability at 28.5 h, 10 µM was determined as 88.1%.

For `N#Cc1c(F)cccc1N1CCCC(C(=O)Nc2nncs2)C1` (centres unmarked) [CBK306335], the viability at 28.5 h, 10 µM worked out at 96.8%. Take `CCc1nc(CC(=O)NC(c2ccc(F)cc2)C2CCCO2)cs1` (centres unmarked) [CBK306336]: the viability at 28.5 h, 10 µM amounted to 117%. Next, `CC(N(C)CC(=O)NCc1ccc(OCC(N)=O)cc1)C(C)(C)C` (centres unmarked) [CBK306338]: 99.2%.

With `CCOCCCNC(=O)C1CCN(c2cccc(F)c2C#N)CC1` [CBK306341], the viability at 28.5 h, 10 µM amounted to 91.9%.

Regarding `O=C(NC1CC1)C1CCN(Cn2nnc3ccccc3c2=S)CC1` [CBK306342], the viability at 28.5 h, 10 µM came out at 94.1%. Next, `N#Cc1cccc(C(=O)NCC2(N3CCOCC3)CCSC2)c1` (centres unmarked) [CBK306344]: 121%. As to `CN(CC(N)=O)c1nc(-c2cccnc2)nc2ccccc12` [CBK306346], the viability at 28.5 h, 10 µM came to 87%. Next, `Cc1ccnc(NCC2CCN(c3ccc4nnnn4n3)C2)c1` (centres unmarked) [CBK306348]: 57.3%; `Cc1ccsc1CN(C)C(=O)NC1CCCc2c1cnn2CCO` (centres unmarked) [CBK306349]: 83%; `COCCSCc1cn2cc(Br)ccc2n1` [CBK306361]: 96.5%. Regarding `Cn1cc(CCCCNC(=O)Cc2c[nH]c3ccc(Cl)cc23)cn1` [CBK306364], the viability at 28.5 h, 10 µM was determined as 76%. Take `Cc1ocnc1C(=O)Nc1nc2c(cc1C#N)CCC2` [CBK306365]: the viability at 28.5 h, 10 µM was 92.7%. Consider `Cc1ccc(CCC(=O)Nc2nc3c(cc2C#N)CCC3)o1` [CBK306366], for which the viability at 28.5 h, 10 µM stood at 67.1%.

On to `CCCOC1CCCN(S(=O)(=O)c2cnc3ccsc3c2)C1` (centres unmarked) [CBK306367], for which the viability at 28.5 h, 10 µM was found to be 75.5%. As for `O=C1CCN(Cc2nc(-c3cccc(C(F)(F)F)c3)no2)CCN1` [CBK306368], the viability at 28.5 h, 10 µM came out at 109%.

As for `CC(NC(=O)CC(F)(F)F)c1nc(-c2ccncc2)cs1` (centres unmarked) [CBK306370], the viability at 28.5 h, 10 µM is 88.5%. In the case of `CCN(Cc1ccc(C#N)cc1F)C(=O)C(NC(=O)OC)C(C)C` (centres unmarked) [CBK306372], the viability at 28.5 h, 10 µM came out at 86.2%. For the compound `CCNc1ncc(C(=O)N2CCOC(c3ccc(F)c(C)c3)C2)s1` (centres unmarked) [CBK306375], the viability at 28.5 h, 10 µM was 95.4%.

On to `Cc1n[nH]c(-c2ccccc2NS(=O)(=O)c2cnn(C(C)C)c2)n1` [CBK306377], for which the viability at 28.5 h, 10 µM worked out at 84.1%. The figure for `CC(=O)NCC1CCCN(Cc2c[nH]nc2-c2c(F)cccc2F)C1` (centres unmarked) [CBK306382] is 99.6%; for `O=C1NC2(CCC2)C(=O)N1Cc1nn(-c2ccccc2)c2c1CCC2` [CBK306383] it is 95.6%. Next, `O=C(NCCC(=O)N1CCCCC1)c1cccc(OCc2cscn2)c1` [CBK306384]: 98.5%.

On to `Cc1cc(C(=O)NC2(C#N)CCSCC2)n(C)n1` [CBK306386], for which the viability at 28.5 h, 10 µM is 90.9%. As to `CC(c1ccc(Cl)cc1Cl)N(C)C(=O)Cn1cnc2c1CCCC2` (centres unmarked) [CBK306387], the viability at 28.5 h, 10 µM was determined as 88%. The figure for `O=C(CCc1nc(=O)c2c3c(sc2[nH]1)CCC3)N1CCCCCC1` [CBK306388] is 90.4%; for `O=C1CCC(=O)N1CCN1CC(O)CC1c1cc(F)ccc1F` (centres unmarked) [CBK306390] it is 92.8%; for `NC(=O)Nc1ccc(C(=O)N2CCN(c3ccccc3)CC2)cc1` [CBK306392] it is 101%. The figure for `Cc1cc(C)c2c(OCC(=O)NC(C)C)nn(C)c2n1` [CBK306393] is 87.4%; for `Cn1cc(-c2nc(C3CCCCCN3C(=O)c3cc(Cl)c[nH]3)no2)cn1` (centres unmarked) [CBK306396] it is 86.4%. As to `Cc1c(C(=O)N2CC(n3cc(C(C)(C)O)nn3)C2)sc2cccc(F)c12` [CBK306398], the viability at 28.5 h, 10 µM stood at 91.4%. Next, `Cn1nccc1C1CCN(Cc2ccc(Oc3cnccn3)cc2)CC1` [CBK306400]: 104%; `Cc1ccc(-n2nc(C(=O)NC3(C#N)CCSC3)cc2C)cc1` (centres unmarked) [CBK306403]: 86.9%. For the compound `CC(NC1CCCN(c2ccc(C#N)cc2)C1=O)c1cncc(F)c1` (centres unmarked) [CBK306404], the viability at 28.5 h, 10 µM was found to be 90.7%.
